Measurements published in patent US9850283B2, “Macrocyclic inhibitors of the PD-1/PD-L1 and CD80(B7-1)/PD-L1 protein/protein interactions” (BRISTOL-MYERS SQUIBB COMPANY, priority 2013, dated 2017).
Starred links: 1 amine or outer side, 2 acyl side, 3 side chain; linkers in the order of their positions; H or OH if unused. Positions of bridges follow the written chain, without caps; N, C: chain ends. Non-standard residues stand in square brackets, D forms with d. Residues, ends and D or L forms follow the SMILES beside them. ξ: configuration not given here. ξPro(4R-NH2) = O=C(C1C[C@@H](N[*:3])CN1[*:1])[*:2]; Bta = N[C@@H](Cc1csc2ccccc12)C(=O)O; NMeNle = CCCC[C@H](NC)C(=O)O; αMeP = C[C@@]1(C(=O)O)CCCN1; NMeS = CN[C@@H](CO)C(=O)O; NMeA = CN[C@@H](C)C(=O)O; ξAze = O=C(O)C1CCN1; Sar = CNCC(=O)O

What follows are compounds tested against T1, Human PD-L1/PD-1 (Homo sapiens, UniProt Q9NZQ7) (assay: HTRF PD-1-Ig/PD-L1-His binding assay (human PD-L1)). Conditions: Table 8, Compound No. 1 variant macrocyclic peptides; read-out: HTRF Human PD-L1/PD-1 Binding Assay IC50.
T1 construct: made in house; host or cells: HEK293T
Source text: The ability of the macrocyclic peptides of the present disclosure to bind to PD-L1 was investigated using a PD-1/PD-L1 Homogenous Time-Resolved Fluorescence (HTRF) binding assay.
Homogenous Time-Resolved Fluorescence (HTRF) Assays of Binding of Soluble PD-1 to Soluble PD-L1. Soluble PD-1 and soluble PD-L1 refers to proteins with carboxyl-end truncations that remove the transmembrane-spanning regions and are fused to heterologous sequences, specifically the Fc portion of the human immunoglobuling G sequence (Ig) or the hexahistidine epitope tag (His). All binding studies were performed in an HTRF assay buffer consisting of dPBS supplemented with 0.1% (w/v) bovine serum albumin and 0.05% (v/v) Tween-20. […] PD-L1 fusion proteins from either human, cynomologous macaques, or mouse were used. HTRF detection was achieved using europium crypate-labeled anti-Ig monoclonal antibody (1 nM final) and allophycocyanin (APC) labeled anti-His monoclonal antibody (20 nM final). Antibodies were diluted in HTRF detection buffer and 5 μl was dispensed on top of binding reaction.

T1 sequence (Q9NZQ7 with tags, fused parts or gaps): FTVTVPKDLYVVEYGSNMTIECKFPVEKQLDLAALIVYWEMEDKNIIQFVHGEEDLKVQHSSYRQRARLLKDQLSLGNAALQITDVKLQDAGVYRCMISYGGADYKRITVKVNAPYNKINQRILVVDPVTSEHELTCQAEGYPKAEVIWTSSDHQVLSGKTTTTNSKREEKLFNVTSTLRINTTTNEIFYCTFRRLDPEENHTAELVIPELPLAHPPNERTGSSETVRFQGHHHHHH

SMILES	IC50 [µM]
CCCC[C@H]1C(=O)N(C)[C@@H](CCCC)C(=O)N[C@@H](CCCNC(=N)N)C(=O)N[C@H](C(=O)NCC(N)=O)CSCC(=O)N[C@@H](Cc2ccccc2)C(=O)N(C)[C@@H](C)C(=O)N[C@@H](CC(N)=O)C(=O)N2CCC[C@@]2(C)C(=O)N[C@@H](Cc2cnc[nH]2)C(=O)N[C@@H](CC(C)C)C(=O)N(C)CC(=O)N[C@@H](Cc2c[nH]c3ccccc23)C(=O)N[C@@H](CO)C(=O)N[C@@H](Cc2c[nH]c3ccccc23)C(=O)N1C [Compound No. 49] ({CH2CO}-F[NMeA]N[αMeP]HL[Sar]WSW[NMeNle][NMeNle]RCG-NH2; thioether N-14)	0.034
CCCC[C@H]1C(=O)N(C)[C@@H](CCCC)C(=O)N[C@@H](CCCNC(=N)N)C(=O)N[C@H](C(=O)NCC(N)=O)CSCC(=O)N[C@@H](Cc2ccccc2)C(=O)N(C)[C@@H](C)C(=O)N[C@@H](CC(N)=O)C(=O)N2CCC[C@H]2C(=O)N[C@@H](Cc2c[nH]cn2)C(=O)N[C@@H](CC(C)C)C(=O)N(C)CC(=O)N[C@@H](Cc2c[nH]c3ccccc23)C(=O)N[C@H](CCC(N)=O)C(=O)N[C@@H](Cc2c[nH]c3ccccc23)C(=O)N1C [Compound No. 59] ({CH2CO}-F[NMeA]NPHL[Sar]W[dQ]W[NMeNle][NMeNle]RCG-NH2; thioether N-14 (inferred))	> 10
CCCC[C@H]1C(=O)N(C)[C@@H](CCCC)C(=O)N[C@@H](C)C(=O)N[C@H](C(=O)NCC(N)=O)CSCC(=O)N[C@@H](Cc2ccccc2)C(=O)N(C)[C@@H](C)C(=O)N[C@@H](CC(N)=O)C(=O)N2CCC[C@H]2C(=O)N[C@@H](Cc2cnc[nH]2)C(=O)N[C@@H](CC(C)C)C(=O)N(C)CC(=O)N[C@@H](Cc2c[nH]c3ccccc23)C(=O)N[C@H](C)C(=O)N[C@@H](Cc2c[nH]c3ccccc23)C(=O)N1C [Compound No. 60] ({CH2CO}-F[NMeA]NPHL[Sar]W[dA]W[NMeNle][NMeNle]ACG-NH2; thioether N-14)	0.043
CCCC[C@H]1C(=O)N(C)[C@@H](CCCC)C(=O)N[C@@H](CCCNC(=N)N)C(=O)N[C@H](C(=O)NCC(N)=O)CSCC(=O)N[C@@H](Cc2ccccc2)C(=O)N(C)[C@@H](C)C(=O)N[C@@H](CC(N)=O)C(=O)N2CCC[C@H]2C(=O)N[C@@H](Cc2cnc[nH]2)C(=O)N[C@@H](CC(C)C)C(=O)N(C)CC(=O)N[C@@H](Cc2c[nH]c3ccccc23)C(=O)N[C@@H](CO)C(=O)N[C@@H](CCSC)C(=O)N1C [Compound No. 61] ({CH2CO}-F[NMeA]NPHL[Sar]WSM[NMeNle][NMeNle]RCG-NH2; thioether N-14)	0.031
CCCC[C@H]1C(=O)N[C@@H](CCCNC(=N)N)C(=O)N[C@H](C(=O)NCC(N)=O)CSCC(=O)N[C@@H](Cc2ccccc2)C(=O)N(C)[C@@H](C)C(=O)N[C@@H](CC(N)=O)C(=O)N2CCC[C@H]2C(=O)N[C@@H](Cc2cnc[nH]2)C(=O)N[C@@H](CC(C)C)C(=O)N(C)CC(=O)N[C@@H](Cc2c[nH]c3ccccc23)C(=O)N[C@@H](CO)C(=O)N[C@@H](Cc2c[nH]c3ccccc23)C(=O)N(C)[C@@H](CC(C)C)C(=O)N1C [Compound No. 65] (HELM PEPTIDE1{[O=C(C[*:3])[*:2]].F.[meA].N.P.H.L.[Sar].W.S.W.[meL].[CCCC[C@@H](C(=O)[*:2])N(C)[*:1]].R.C.G.[am]}$PEPTIDE1,PEPTIDE1,1:R3-15:R3$$$V2.0)	0.043
CCCC[C@H]1C(=O)N[C@@H](CCCNC(=N)N)C(=O)N[C@H](C(=O)NCC(N)=O)CSCC(=O)N[C@@H](Cc2ccccc2)C(=O)N(C)[C@@H](C)C(=O)N[C@@H](CC(N)=O)C(=O)N2CCC[C@H]2C(=O)N[C@@H](Cc2cnc[nH]2)C(=O)N[C@@H](CC(C)C)C(=O)N(C)CC(=O)N[C@@H](Cc2c[nH]c3ccccc23)C(=O)N[C@@H](CO)C(=O)N[C@@H](Cc2c[nH]c3ccccc23)C(=O)N(C)[C@@H](Cc2ccccc2)C(=O)N1C [Compound No. 67] (HELM PEPTIDE1{[O=C(C[*:3])[*:2]].F.[meA].N.P.H.L.[Sar].W.S.W.[meF].[CCCC[C@@H](C(=O)[*:2])N(C)[*:1]].R.C.G.[am]}$PEPTIDE1,PEPTIDE1,1:R3-15:R3$$$V2.0)	0.108

Results, then the compound that gave them:

IC50 [µM]	SMILES
0.04	CCCC[C@H]1C(=O)N(C)[C@@H](CCCC)C(=O)N[C@@H](CCCNC(=N)N)C(=O)N[C@H](C(=O)NCC(N)=O)CSCC(=O)N[C@@H](Cc2ccccc2)C(=O)N(C)[C@@H](C)C(=O)N[C@@H](CC(N)=O)C(=O)N2C[C@H](N)CC2C(=O)N[C@@H](Cc2cnc[nH]2)C(=O)N[C@@H](CC(C)C)C(=O)N(C)CC(=O)N[C@@H](Cc2c[nH]c3ccccc23)C(=O)N[C@@H](CO)C(=O)N[C@@H](Cc2c[nH]c3ccccc23)C(=O)N1C (stereo partly drawn) [Compound No. 48] ({CH2CO}-F[NMeA]N[ξPro(4R-NH2)]HL[Sar]WSW[NMeNle][NMeNle]RCG-NH2; thioether N-14)
0.071	CCCC[C@H]1C(=O)N(C)[C@@H](CCCC)C(=O)N[C@@H](CCCNC(=N)N)C(=O)N[C@H](C(=O)NCC(N)=O)CSCC(=O)N[C@@H](Cc2ccccc2)C(=O)N(C)[C@@H](C)C(=O)N[C@@H](CC(N)=O)C(=O)N2CCC2C(=O)N[C@@H](Cc2cnc[nH]2)C(=O)N[C@@H](CC(C)C)C(=O)N(C)CC(=O)N[C@@H](Cc2c[nH]c3ccccc23)C(=O)N[C@@H](CO)C(=O)N[C@@H](Cc2c[nH]c3ccccc23)C(=O)N1C (some centres unmarked) [Compound No. 50] ({CH2CO}-F[NMeA]N[ξAze]HL[Sar]WSW[NMeNle][NMeNle]RCG-NH2; thioether N-14)
0.013	CCCC[C@H]1C(=O)N(C)[C@@H](CCCC)C(=O)N[C@@H](CCCNC(=N)N)C(=O)N[C@H](C(=O)NCC(N)=O)CSCC(=O)N[C@@H](Cc2ccccc2)C(=O)N(C)[C@@H](C)C(=O)N[C@@H](CC(N)=O)C(=O)N2CCC[C@H]2C(=O)N[C@@H](Cc2cnc[nH]2)C(=O)N[C@@H](CC(C)C)C(=O)N(C)[C@@H](CO)C(=O)N[C@@H](Cc2c[nH]c3ccccc23)C(=O)N[C@@H](CO)C(=O)N[C@@H](Cc2c[nH]c3ccccc23)C(=O)N1C [Compound No. 56] ({CH2CO}-F[NMeA]NPHL[NMeS]WSW[NMeNle][NMeNle]RCG-NH2; thioether N-14)
0.007	CCCC[C@H]1C(=O)N(C)[C@@H](CCCC)C(=O)N[C@@H](CCCNC(=N)N)C(=O)N[C@H](C(=O)NCC(N)=O)CSCC(=O)N[C@@H](Cc2ccccc2)C(=O)N(C)[C@@H](C)C(=O)N[C@@H](CC(N)=O)C(=O)N2CCC[C@H]2C(=O)N[C@@H](Cc2cnc[nH]2)C(=O)N[C@@H](CC(C)C)C(=O)N(C)CC(=O)N[C@@H](Cc2c[nH]c3ccccc23)C(=O)N[C@@H](CO)C(=O)N[C@@H](Cc2csc3ccccc23)C(=O)N1C [Compound No. 64] ({CH2CO}-F[NMeA]NPHL[Sar]WS[Bta][NMeNle][NMeNle]RCG-NH2; thioether N-14)

Same assay, conditions: Table 9, Compound No. 71 variant macrocyclic peptides; read-out: HTRF Human PD-L1/PD-1 Binding Assay IC50

IC50 [µM]	SMILES
0.014	CCCC[C@H]1C(=O)NCC(=O)N[C@@H](CC(=O)O)C(=O)N[C@@H](C(C)C)C(=O)N(C)[C@@H](Cc2ccccc2)C(=O)N[C@@H](Cc2ccc(O)cc2)C(=O)N(C)CC(=O)N[C@@H](Cc2c[nH]c3ccccc23)C(=O)N[C@@H](Cc2ccc(O)cc2)C(=O)N[C@@H](CC(C)C)C(=O)N[C@H](C(=O)NCC(N)=O)CSCC(=O)N[C@@H](Cc2ccccc2)C(=O)N(C)[C@@H](Cc2ccccc2)C(=O)N1C [Compound No. 78] (HELM PEPTIDE1{[O=C(C[*:3])[*:2]].F.[meF].[CCCC[C@@H](C(=O)[*:2])N(C)[*:1]].G.D.V.[meF].Y.[Sar].W.Y.L.C.G.[am]}$PEPTIDE1,PEPTIDE1,1:R3-14:R3$$$V2.0)
